Data reported in ChEMBL document CHEMBL5042543, “Bridged Piperidine Analogues of a High Affinity Naphthalene-Based P2Y14R Antagonist” (J Med Chem, 2022).
In brackets after ≈: the same amount, converted by molar mass. Each block holds one molecule with its values, some of them ahead of it.

Assays:
[1] = Distribution coefficient, logD of compound at pH 7.4 by HPLC analysis; format: physicochemical; settings: octanol/water, read-out: logD
[2] = target: Sigma intracellular receptor 2 (Homo sapiens, UniProt Q5BJF2); assay: Inhibition of sigma 2 receptor (unknown origin) assessed as binding constant
[3] = target: Sigma non-opioid intracellular receptor 1 (Homo sapiens, UniProt Q99720); assay: Inhibition of sigma 1 receptor (unknown origin) assessed as binding constant
[4] = target: Beta-3 adrenergic receptor (Homo sapiens, UniProt P13945); assay: Inhibition of adrenergic beta 3 receptor (unknown origin) assessed as binding constant
P2Y purinoceptor 14 [5] = target: T1, P2Y purinoceptor 14 (Mus musculus, UniProt Q9ESG6); assay: Inhibition of fluorescent antagonist binding to mouse P2Y14R expressed in HEK293 cells preincubated for 30 mins followed by addition of 6-amino-9-(2-carboxy-4-((6-(4-(4-(4-(4-(3-carboxy-6-(4-(trifluoromethyl)phenyl)naphthalen-1-yl)phenyl)piperidin-1-yl)butyl)-1H-1,2,3-triazol-1-yl)hexyl)carbamoyl)phenyl)-3-iminio-5-sulfo-3H-xanthene-4-sulfonate incubated for 30 mins by BD FACSCalibur flow …; format: cell-based
T1 sequence (Q9ESG6 whole entry): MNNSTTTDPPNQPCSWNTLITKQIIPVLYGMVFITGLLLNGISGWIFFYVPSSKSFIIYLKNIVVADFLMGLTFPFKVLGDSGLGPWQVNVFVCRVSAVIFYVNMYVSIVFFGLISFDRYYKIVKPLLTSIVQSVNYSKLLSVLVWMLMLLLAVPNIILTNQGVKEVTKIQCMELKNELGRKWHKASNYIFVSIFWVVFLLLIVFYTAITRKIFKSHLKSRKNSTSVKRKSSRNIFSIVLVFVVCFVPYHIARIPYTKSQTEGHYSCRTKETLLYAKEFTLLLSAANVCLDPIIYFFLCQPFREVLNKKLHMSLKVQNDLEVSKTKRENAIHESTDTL

D(1B) dopamine receptor = D(1B) dopamine receptor (Homo sapiens, UniProt P21918); assay: Inhibition of dopamine D5 receptor (unknown origin) assessed as binding constant
D(3) dopamine receptor = D(3) dopamine receptor (Homo sapiens, UniProt P35462); assay: Inhibition of dopamine D3 receptor (unknown origin) assessed as binding constant
Translocator protein = Translocator protein (Homo sapiens, UniProt P30536); assay: Inhibition of TSPO receptor (unknown origin) assessed as binding constant
P2Y purinoceptor 14 [6] = target: T2, P2Y purinoceptor 14 (Homo sapiens, UniProt Q15391); assay: cell-based
T2 sequence (Q15391 whole entry): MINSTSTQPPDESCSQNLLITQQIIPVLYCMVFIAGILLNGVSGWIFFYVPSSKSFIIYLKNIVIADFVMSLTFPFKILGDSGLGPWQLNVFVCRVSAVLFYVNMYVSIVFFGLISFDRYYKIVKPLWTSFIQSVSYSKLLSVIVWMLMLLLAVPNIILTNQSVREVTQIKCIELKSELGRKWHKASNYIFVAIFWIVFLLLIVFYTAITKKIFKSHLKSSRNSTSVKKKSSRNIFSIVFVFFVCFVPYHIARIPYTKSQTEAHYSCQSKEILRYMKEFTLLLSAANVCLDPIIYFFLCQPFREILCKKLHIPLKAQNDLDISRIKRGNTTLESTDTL

[7] = Aqueous solubility of the compound at pH 4
[8] = Aqueous solubility of the compound at pH 7.4; settings: buffer
liver carboxylesterase = target: T3, liver carboxylesterase (Sus scrofa, UniProt Q29550); assay: Stability of the compound in aqueous medium at pH 7.4 assessed as half life in presence of porcine liver esterase; format: physicochemical; settings: pig
T3 sequence (Q29550 whole entry): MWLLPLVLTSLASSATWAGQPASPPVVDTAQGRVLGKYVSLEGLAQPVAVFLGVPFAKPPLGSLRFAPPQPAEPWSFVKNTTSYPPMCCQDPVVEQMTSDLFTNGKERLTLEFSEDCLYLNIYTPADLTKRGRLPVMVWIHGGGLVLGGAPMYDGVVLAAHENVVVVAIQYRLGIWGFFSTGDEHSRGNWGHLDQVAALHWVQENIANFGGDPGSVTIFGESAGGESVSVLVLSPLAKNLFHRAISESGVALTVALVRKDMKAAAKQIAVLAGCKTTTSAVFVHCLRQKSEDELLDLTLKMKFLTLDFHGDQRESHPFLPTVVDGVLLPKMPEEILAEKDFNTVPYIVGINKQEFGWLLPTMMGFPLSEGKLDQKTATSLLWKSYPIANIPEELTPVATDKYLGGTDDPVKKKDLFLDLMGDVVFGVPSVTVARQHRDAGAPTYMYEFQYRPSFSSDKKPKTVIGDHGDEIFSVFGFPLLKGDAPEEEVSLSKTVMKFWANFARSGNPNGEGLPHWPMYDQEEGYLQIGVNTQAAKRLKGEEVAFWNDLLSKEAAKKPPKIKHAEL

Beta-3 adrenergic receptor, sequence (P13945 whole entry): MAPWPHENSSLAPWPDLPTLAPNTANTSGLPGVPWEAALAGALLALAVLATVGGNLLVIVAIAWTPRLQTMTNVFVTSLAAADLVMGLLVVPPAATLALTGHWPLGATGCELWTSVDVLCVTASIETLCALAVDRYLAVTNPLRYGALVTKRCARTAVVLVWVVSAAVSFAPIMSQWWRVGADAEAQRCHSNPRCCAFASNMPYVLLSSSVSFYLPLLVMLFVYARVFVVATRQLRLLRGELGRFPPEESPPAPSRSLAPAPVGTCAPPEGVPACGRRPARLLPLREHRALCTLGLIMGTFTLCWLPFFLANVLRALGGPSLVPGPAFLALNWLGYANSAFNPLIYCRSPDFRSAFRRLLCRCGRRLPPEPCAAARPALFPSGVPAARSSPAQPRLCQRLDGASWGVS
Translocator protein, sequence (P30536 whole entry): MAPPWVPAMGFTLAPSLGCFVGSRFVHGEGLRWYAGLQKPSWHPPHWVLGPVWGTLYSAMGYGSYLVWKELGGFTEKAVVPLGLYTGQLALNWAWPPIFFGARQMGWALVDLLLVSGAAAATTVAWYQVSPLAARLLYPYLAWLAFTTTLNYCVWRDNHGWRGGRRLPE
Sigma intracellular receptor 2, sequence (Q5BJF2 whole entry): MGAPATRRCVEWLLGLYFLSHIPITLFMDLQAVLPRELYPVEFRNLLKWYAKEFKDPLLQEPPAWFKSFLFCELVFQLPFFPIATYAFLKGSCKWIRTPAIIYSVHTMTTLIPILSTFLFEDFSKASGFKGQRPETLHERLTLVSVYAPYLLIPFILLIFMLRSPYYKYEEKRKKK
Sigma non-opioid intracellular receptor 1, sequence (Q99720 whole entry): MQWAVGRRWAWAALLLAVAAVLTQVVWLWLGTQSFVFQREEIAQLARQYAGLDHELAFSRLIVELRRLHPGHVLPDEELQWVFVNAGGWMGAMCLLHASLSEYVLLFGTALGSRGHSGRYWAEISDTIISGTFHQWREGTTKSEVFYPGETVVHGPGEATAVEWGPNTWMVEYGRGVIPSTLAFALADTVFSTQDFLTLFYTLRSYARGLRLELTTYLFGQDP
D(3) dopamine receptor, sequence (P35462 whole entry): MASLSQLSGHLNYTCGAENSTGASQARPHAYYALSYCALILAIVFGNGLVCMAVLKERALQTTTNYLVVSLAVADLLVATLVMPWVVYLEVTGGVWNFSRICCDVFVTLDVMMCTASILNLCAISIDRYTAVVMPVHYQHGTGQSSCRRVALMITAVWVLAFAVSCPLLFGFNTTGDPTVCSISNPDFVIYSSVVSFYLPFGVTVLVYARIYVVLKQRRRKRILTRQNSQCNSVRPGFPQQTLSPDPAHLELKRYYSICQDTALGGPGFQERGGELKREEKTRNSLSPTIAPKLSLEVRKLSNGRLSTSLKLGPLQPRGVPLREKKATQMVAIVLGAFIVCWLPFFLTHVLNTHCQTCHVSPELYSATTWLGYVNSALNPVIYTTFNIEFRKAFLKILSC
D(1B) dopamine receptor, sequence (P21918 whole entry): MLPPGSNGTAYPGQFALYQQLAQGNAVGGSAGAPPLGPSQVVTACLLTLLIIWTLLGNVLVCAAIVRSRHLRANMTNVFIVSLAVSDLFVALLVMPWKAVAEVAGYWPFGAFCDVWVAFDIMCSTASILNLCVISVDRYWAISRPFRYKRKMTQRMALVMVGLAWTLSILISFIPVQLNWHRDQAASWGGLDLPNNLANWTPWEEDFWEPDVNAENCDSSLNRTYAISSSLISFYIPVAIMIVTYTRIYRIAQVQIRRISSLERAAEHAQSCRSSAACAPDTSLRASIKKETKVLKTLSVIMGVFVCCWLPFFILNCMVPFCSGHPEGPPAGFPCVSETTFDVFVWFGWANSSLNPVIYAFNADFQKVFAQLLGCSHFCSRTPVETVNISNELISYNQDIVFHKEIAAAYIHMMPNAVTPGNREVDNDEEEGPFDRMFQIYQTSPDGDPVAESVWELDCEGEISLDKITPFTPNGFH

Compound: CC1CC(c2ccc(-c3cc(C(=O)O)cc4cc(-c5ccc(C(F)(F)F)cc5)ccc34)cc2)CCN1 (configuration not stated)
logD [1]: 2.1

Compound: O=C(O)c1cc(-c2ccc([C@@H]3C[C@@H]4C[C@H]3C(=O)N4)cc2)c2ccc(-c3ccc(C(F)(F)F)cc3)cc2c1
Ki [2]: 1900 nM | logD [1]: 0.49 | Ki [3]: 3200 nM | Ki [4]: > 1000 nM

Compound: O=C(O)c1cc(-c2ccc([C@@H]3C[C@H]4CN[C@@H]3C4)cc2)c2ccc(-c3ccc(C(F)(F)F)cc3)cc2c1
IC50 (P2Y purinoceptor 14 [5]): 90.9 nM | Ki [2]: 1000 nM | logD [1]: 2.1

Compound: O=C(O)c1cc(-c2ccc([C@@H]3C[C@@H]4C[C@H]3CN4)cc2)c2ccc(-c3ccc(C(F)(F)F)cc3)cc2c1
Ki (D(1B) dopamine receptor): > 1000 nM | IC50 (P2Y purinoceptor 14 [5]): 13.4 nM | Ki [2]: 1200 nM | Ki [3]: 2100 nM | Ki (D(3) dopamine receptor): 1000 nM | Ki [4]: > 1000 nM | Ki (Translocator protein): 1800 nM

Compound: O=C(O)c1cc(-c2ccc(C3CC4CCC3CN4)cc2)c2ccc(-c3ccc(C(F)(F)F)cc3)cc2c1 (configuration not stated)
IC50 (P2Y purinoceptor 14 [6]): 25.1 nM | logD [1]: 1.7

Compound: O=C(O)c1cc(-c2ccc([C@]3(O)C[C@H]4CC[C@@H]3CN4)cc2)c2ccc(-c3ccc(C(F)(F)F)cc3)cc2c1 (racemic)
IC50 (P2Y purinoceptor 14 [6]): 114 nM | logD [1]: 0.74

Compound: N[C@H]1C[C@@H](C(=O)O)C[C@@H]1c1ccc(-c2cc(C(=O)O)cc3cc(-c4ccc(C(F)(F)F)cc4)ccc23)cc1
IC50 (P2Y purinoceptor 14 [6]): 269 nM

Compound: N[C@@H]1C[C@H](CO)[C@@H](c2ccc(-c3cc(C(=O)O)cc4cc(-c5ccc(C(F)(F)F)cc5)ccc34)cc2)C1
Ki [2]: 1000 nM

Compound: O=C(O)c1cc(-c2ccc([C@@H]3CCN[C@@H]4C[C@@H]43)cc2)c2ccc(-c3ccc(C(F)(F)F)cc3)cc2c1 (racemic)
solubility ([7]; buffer): 0.24 µg/mL (≈ 0.492 µM) | solubility [8]: 0.05 µg/mL (≈ 0.103 µM) | logD [1]: 1.8

Compound: O=C(O)c1cc(-c2ccc(C3(O)[C@H]4CC[C@H]3CNC4)cc2)c2ccc(-c3ccc(C(F)(F)F)cc3)cc2c1 (some centres not stated)
IC50 (P2Y purinoceptor 14 [6]): 21.3 nM | solubility ([7]; buffer): 2.32 µg/mL (≈ 4.48 µM) | IC50 (P2Y purinoceptor 14 [5]): 15.5 nM | solubility [8]: 0.54 µg/mL (≈ 1.04 µM) | Ki [2]: 1700 nM | logD [1]: 1.2 | Ki [3]: 1700 nM

half-life (liver carboxylesterase): > 72 h
Compound: CC(=O)N1C[C@@H]2C[C@H]1C[C@H]2c1ccc(-c2cc(C(=O)OCC(=O)N(C)C)cc3cc(-c4ccc(C(F)(F)F)cc4)ccc23)cc1

Compound: N[C@H]1C[C@@H](CO)[C@H](c2ccc(-c3cc(C(=O)O)cc4cc(-c5ccc(C(F)(F)F)cc5)ccc34)cc2)C1
Ki [2]: 1100 nM | logD [1]: 0.96 | Ki [3]: 1300 nM | Ki (D(3) dopamine receptor): 330 nM | Ki [4]: > 1000 nM | Ki (Translocator protein): 1800 nM

Compound: O=C(O)c1cc(-c2ccc([C@H]3C[C@H]4C[C@@H]3NC4=O)cc2)c2ccc(-c3ccc(C(F)(F)F)cc3)cc2c1
Ki (D(1B) dopamine receptor): > 1000 nM | Ki [2]: 1400 nM | Ki [3]: 2600 nM | Ki [4]: > 1000 nM | Ki (Translocator protein): 1400 nM

Compound: O=C(O)c1cc(-c2ccc([C@@]3(O)C[C@H]4CC[C@@H](C3)N4)cc2)c2ccc(-c3ccc(C(F)(F)F)cc3)cc2c1
logD [1]: 1.2

Compound: N[C@H]1C[C@@H](C(=O)O)[C@H](c2ccc(-c3cc(C(=O)O)cc4cc(-c5ccc(C(F)(F)F)cc5)ccc34)cc2)C1
logD [1]: -0.57

Compound: N[C@@H]1C[C@H](C(=O)O)C[C@H]1c1ccc(-c2cc(C(=O)O)cc3cc(-c4ccc(C(F)(F)F)cc4)ccc23)cc1
logD [1]: -0.48

Compound: O=C(O)c1cc(-c2ccc([C@H]3CCN[C@@H]4C[C@H]34)cc2)c2ccc(-c3ccc(C(F)(F)F)cc3)cc2c1 (relative stereo)
solubility ([7]; aqueous medium): 0.1 µg/mL (≈ 0.205 µM) | solubility [8]: 0.51 µg/mL (≈ 1.05 µM) | logD [1]: 2.6

Compound: O=C(O)c1cc(-c2ccc(C3(O)[C@H]4CC[C@H]3CN(Cc3ccccc3)C4)cc2)c2ccc(-c3ccc(C(F)(F)F)cc3)cc2c1 (some centres not stated)
solubility ([7]; buffer): 0.48 µg/mL (≈ 0.79 µM) | solubility [8]: 0.14 µg/mL (≈ 0.23 µM) | logD [1]: 3.3
